Results as given in the supplement of paper PMC10307832.

Legend:
Experiment in all cases: relative viability (nuclei count vs DMSO), 5 days (fraction); higher = more cells survive
[1] = compound: Cc1ccccc1C(C(=O)NC1CCCCC1)N(C(=O)Cn1ccnc1C)c1cccc(F)c1 [IDH-C35] + CC(=O)c1c(C)c2cnc(Nc3ccc(N4CCNCC4)cn3)nc2n(C2CCCC2)c1=O [Palbociclib] (partner 0.5 µM)
Procedure, shortened: (§1)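 Dosing by pin tool came one day after lung cancer cell lines were seeded in 1536-well plates, using either one drug or a fixed anchor-drug dose plus five library-drug doses (not always all listed) in √10 steps. After 5 days, nuclei were counted on 4× images. Relative viability is treated-well nuclei count divided by vehicle-well nuclei count, and values are medians of duplicate plates.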

[2] = compound: Cc1ccccc1C(C(=O)NC1CCCCC1)N(C(=O)Cn1ccnc1C)c1cccc(F)c1 [IDH-C35] + O=C(CCCCCCC(=O)Nc1ccccc1)NO [Vorinostat] (partner 1 µM)
Procedure, shortened: as §1

[3] = compound: CC1=C(C(=NN1)C)CC2=C(C3=C(S2)N(C(=O)N(C3=O)C)CC(C)C)C(=O)N4C[C@@H](CO4)O + CCNC(=O)c1noc(-c2cc(C(C)C)c(O)cc2O)c1-c1ccc(CN2CCOCC2)cc1 [Luminespib] (partner 0.01 µM)
Procedure, shortened: as §1

[4] = compound: Cc1ccccc1C(C(=O)NC1CCCCC1)N(C(=O)Cn1ccnc1C)c1cccc(F)c1 [IDH-C35] + COc1cccc2cc(-c3nc([C@H]4CC[C@H](C(=O)O)CC4)n4ncnc(N)c34)[nH]c12 [OSI-027] (partner 0.5 µM)
Procedure, shortened: as §1

UMC-11
relative viability ([1]; first compound 0.08 µM): 0.335
relative viability ([1]; first compound 0.253 µM): 0.32
relative viability ([1]; first compound 0.8 µM): 0.341
relative viability ([1]; first compound 2.53 µM): 0.299
relative viability ([1]; first compound 8 µM): 0.337
relative viability ([2]; first compound 0.08 µM): 0.373
relative viability ([2]; first compound 0.253 µM): 0.468
relative viability ([2]; first compound 0.8 µM): 0.435
relative viability ([2]; first compound 2.53 µM): 0.434
relative viability ([2]; first compound 8 µM): 0.46
relative viability ([3]; first compound 0.0025 µM): 1.06
relative viability ([3]; first compound 0.007906 µM): 1.33
relative viability ([3]; first compound 0.025 µM): 0.959
relative viability ([3]; first compound 0.07906 µM): 1.08
relative viability ([3]; first compound 0.25 µM): 1.13
relative viability ([4]; first compound 0.08 µM): 0.444
relative viability ([4]; first compound 0.253 µM): 0.47
relative viability ([4]; first compound 0.8 µM): 0.473
relative viability ([4]; first compound 2.53 µM): 0.482
relative viability ([4]; first compound 8 µM): 0.463
